From patent publication US12503448B2, “Antibacterial and antiparasitic quinoxaline-2,3-diamine derivatives” (University College Cardiff Consultants Limited, priority 2019, dated 2025)
pEC50: −log10 of the molar value. Like-named read-outs stand apart in the source and are kept apart here.

Key:
S. mansoni schistosomula = test: 72 hours schistosomula drug screen; assay type: cell-based, Schistosoma mansoni; conditions: for Selectivity Index Schistosomula: HepG2 CC50 over schistosomula EC50; for pEC50: Schistosoma mansoni
Description: Biological Screening 72 Hours Schistosomula Drug Screen […] G. Colley, […], Schistosoma mansoni: simplified method for the production of schistosomules., Exp. Parasitol. 35 (1974) 44-51. Newly transformed schistosomula were prepared for 72 hour high throughput screening (HTS) in 384-well black-sided microtiter plates (Perkin Elmer, MA, USA) as described in M. Nur-e-alam, M. Yousaf, […]. Bari, H. A. Ghabbour, […]. Ho, A. J. […], Neoclerodane Diterpenoids from […], Teucrium […]. Nat. […] The data obtained in this manner is shown in Table 1 in the columns labelled “Phenotype”, “Motility” and “Schistosomula average”.

S. mansoni adult worms = test: Adult worm drug screen (WHO scoring, WormassayGP2); assay type: cell-based, Schistosoma mansoni
From the text: Mice (MF-1 mice, Harlan, UK), infected 7 weeks previously with 180 cercaria, were euthanised with an intraperitoneal injection of phenobarbital/heparin solution. Adult worms were recovered by perfusion of the portal system and subjected to drug screening as previously described in Padalino G, Ferla S, Brancale A, Chalmers I W, Hoffmann K F. Int J Parasitol Drugs Drug Resist. 2018 December; 8(3):559-570; in Whiteland H L, Chakroborty A, Forde-Thomas J E, Crusco A, Cookson A, Hollinshead J, Fenn C A, Bartholomew B, Holdsworth P A, Fisher M, Nash R J, Hoffmann K F. Int J Parasitol Drugs Drug Resist. 2018 December; 8(3):465-474; and in Crusco A, Bordoni C, Chakroborty A, Whatley K C L, Whiteland H, Westwell A D, Hoffmann K F. Eur J Med Chem. 2018 May 25; 152:87-100. The data obtained in this manner is shown in Table 1 in the columns labelled “Adult worm”.
Regarding the quantification of drug treatment on adult worms (e.g. decreased activity, paralysis or sluggishness), two different approaches were used, as described below. Where egg deposition was noticed, eggs were removed and counted using a Sedgewick rafter slide.
Adult worms were scored using the standardized microscopic WHO-TDR scoring system previously described by Ramirez, B., Bickle, Q., Yousif, F., Fakorede, F., Mouries, M.-A., Nwaka, S. in Schistosomes: Challenges in compound screening, Expert Opin Drug Discov. 2007 October; 2(s1): S53-61. This scoring system (0-4) identifies changes in worm movement and is defined according to the following scoring matrix: 0=no movement, 1=no movement with visible gut peristalsis, 2=minimal movement (occasional movement from anterior or posterior end of the worm), 3=slow continuous movement and 4=normal movement.
A digital image processing-based system was also used to assess parasite motility after drug treatment and is a modification of methods previously described by Marcellino C., Gut, J., Lim, K., Singh R., McKerrow, L. and Sakanari, J. WormAssay: a novel computer application for whole-plate motion-based screening of macroscopic parasites. PLoS Negl Trop Dis. 2012 January:6(1):e1494. This allowed for objective verification of the WHO method described above. The data obtained with this quantification method is shown in Table 1 in the columns labelled “Adult worm”.

H3K4 methylation = test: Histone extraction and detection of global H3K4 methylation in treated adult worms; assay type: cell-based, Schistosoma mansoni; conditions: sub-lethal concentration 0.0024 μM, male and female adult worms
MTT assay on HepG2 cells = assay type: cell-based; conditions: human
Description: MTT Assay on HepG2 Cells Human Hepatocyte Carcinoma (HepG2) cells (85011430, Sigma Aldrich) were used to assess the overt toxicity of these anti-infective compounds. […] A negative control (1% v/v Triton X-100; X100, Sigma-Aldrich) was also included in each screen. After addition of compounds, each plate was then incubated for a further 20 hrs before application of MTT reagent (prepared as described in Nur-[…], Bari A, Ghabbour […], Hoffmann […] Nat Prod. 2017 Jun. 23; 80(6):1900-1908 for the assessment of compound cytotoxicity using the MTT assay. […] The plate was then further incubated for 4 hrs. After incubation, each plate was blotted dry under the laminar flow to remove the MTT treated culture media. A 100 μl DMSO: isopropanol (1:1) solution was then added to each well and the plate was then subsequently incubated for 10 minutes at 37° C. Following incubation, each plate was shaken again and then absorbance measured at 570 nm. The absorbance reading was corrected based on the average value of the wells used as blank (no cells). […] The data obtained in this manner is shown in Table 1 in the columns labelled “HepG2”. […] The selectivity indexes for schistosomula and adult worms are shown in the final two columns in Table 1.

[1] = schistosomula, 72 hour culture, read-out: EC50 Motility
[2] = schistosomula, 72 hour culture, read-out: EC50 Phenotype

Structure (SMILES)	Selectivity Index Schistosomula (S. mansoni schistosomula)	pEC50 (S. mansoni schistosomula; [1])	pEC50 (S. mansoni schistosomula; [2])	Selectivity Index Adult (S. mansoni adult worms; HepG2 CC50 over adult worm EC50)	pEC50 (S. mansoni adult worms; Schistosoma mansoni, adult worms)	global H3K4 methylation compared to the negative control (DMSO) (H3K4 methylation)	pEC50 (S. mansoni schistosomula; average of phenotype and motility, read-out: EC50 Schistosomula average)	CC50 at 24 h (MTT assay on HepG2 cells) [µM]
O=[N+]([O-])c1ccc2nc(Nc3cc(F)cc(C(F)(F)F)c3)c(Nc3cc(F)cc(C(F)(F)F)c3)nc2c1 [Compound 8, N^2, N^3-bis(3-fluoro-5-(trifluoromethyl)phenyl)-6-nitroquinoxaline-2,3-diamine]	25	6.37	6.43	1549	8.19	significant % decrease	–	–
c1ccc(/N=c2\sc3ccccc3s\c2=N/c2ccccc2)cc1 [Compound 20]	3	5.35	5.37	–	–	–	5.36	13.8
